Values quoted from earlier work in patent US7491713B2, “CGRP receptor antagonists” (Merck + Co., Inc., priority 2004, dated 2009).
Ends that are not written are not given here.

What was measured:
marmoset = marmoset (Doods et al. 2000)
rats = conditions: prior administration (Williamson et al. 1997)
rat = rat (Escott et al. 1995)

Question: Which “effect on stimulation-induced increase of facial blood flow” value (marmoset) does the source give for `NCCCC[C@H](NC(=O)[C@@H](Cc1cc(Br)c(O)c(Br)c1)NC(=O)N1CCC(N2Cc3ccccc3NC2=O)CC1)C(=O)N1CCN(c2ccncc2)CC1` [BIBN4096BS] here?
Answer: blocked

Question: Which results are given for “CGRP(8-37): a fragment of CGRP that lacks seven N-terminal amino acid residues; a peptide CGRP antagonist (VTHRLAGLLSRSGGVVKNNFVPTNVGSKAF; ends and bridges not checked; UniProt P06881 90-119, looked up, fragment)”?
Answer: effect on stimulation-induced increase of middle meningeal artery diameter (rats): blocked; effect on stimulation-induced increase of facial blood flow (rat): inhibited
